# Test results reported in patent publication US20230085307A1, “PYRIDAZINONE COMPOUND AND HERBICIDE” (NISSAN CHEMICAL CORPORATION, priority 2019, published 2023).
# Columns and labels:
# late watergrass = experiment: Test Example 1: herbicidal activity, application before weed generation under submerged conditions (Table 16, symbol A); format: in vivo, late watergrass (Echinochloa oryzicola); settings: amount of applied herbicide 320 g/ha
# Method in brief: (§1)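 Alluvial soil was flooded to 4 cm depth, weed seeds were sown mixed and 2.5-leaf rice seedlings were transplanted. On sowing day, the compound's emulsion, diluted in water to a set dose, was applied to the water surface. Plants grew at 25–30 °C and were scored 0–5 after three weeks.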
# Japanese bulrush = experiment: Test Example 1: herbicidal activity, application before weed generation under submerged conditions (Table 16, symbol B); format: in vivo, Japanese bulrush (Schoenoplectus juncoides); settings: amount of applied herbicide 320 g/ha
# Method in brief: as §1
# oval-leafed pondweed = experiment: Test Example 1: herbicidal activity, application before weed generation under submerged conditions (Table 16, symbol C); format: in vivo, oval-leafed pondweed (Monochoria vaginalis); settings: amount of applied herbicide 320 g/ha
# Method in brief: as §1
# barnyard grass [1] = experiment: Test Example 3: herbicidal effect by foliage application, Wagner pot (Table 18, symbol H); format: in vivo, barnyard grass (Echinochloa crus-galli); settings: amount of applied herbicide 320 g/ha
# Method in brief: (§2)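 Plants were sown in alluvial soil held under 0.1–0.5 cm standing water and grown 14 days in a greenhouse at 25–30 °C. An emulsifiable formulation, water-diluted to the set dose, was then sprayed onto the foliage, and effects were scored three weeks later using previously defined criteria.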
# Chinese sprangletop = experiment: Test Example 3: herbicidal effect by foliage application, Wagner pot (Table 18, symbol D); format: in vivo, chinese sprangletop (Leptochloa chinensis); settings: amount of applied herbicide 320 g/ha
# Method in brief: as §2
# rice flat sedge = experiment: Test Example 3: herbicidal effect by foliage application, Wagner pot (Table 18, symbol E); format: in vivo, rice flat sedge (Cyperus iria); settings: amount of applied herbicide 320 g/ha
# Method in brief: as §2
# southern crabgrass = experiment: Test Example 5: herbicidal effect by foliage application, plastic box (Table 20, symbol F); format: in vivo, southern crabgrass (Digitaria ciliaris); settings: foliage application, 320 g/ha, three weeks after application
# Method in brief: (§3)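 Plants were sown into sterilized diluvial soil under about 1.5 cm cover and kept in a greenhouse at 25° C. to 30° C. Fourteen days on, foliage received an even spray of the diluted emulsion. Herbicidal or crop effect was judged three weeks afterwards.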
# green foxtail = experiment: Test Example 5: herbicidal effect by foliage application, plastic box (Table 20, symbol G); format: in vivo, green foxtail (Setaria viridis); settings: foliage application, 320 g/ha, three weeks after application
# Method in brief: as §3
# barnyard grass [2] = experiment: Test Example 5: herbicidal effect by foliage application, plastic box (Table 20, symbol H); format: in vivo, barnyard grass (Echinochloa crus-galli); settings: foliage application, 320 g/ha, three weeks after application
# Method in brief: as §3
# wild oat = experiment: Test Example 5: herbicidal effect by foliage application, plastic box (Table 20, symbol I); format: in vivo, wild oat (Avena fatua); settings: foliage application, 320 g/ha, three weeks after application
# Method in brief: as §3
# blackgrass = experiment: Test Example 5: herbicidal effect by foliage application, plastic box (Table 20, symbol J); format: in vivo, blackgrass (Alopecurus myosuroides); settings: foliage application, 320 g/ha, three weeks after application
# Method in brief: as §3
# Italian ryegrass = experiment: Test Example 5: herbicidal effect by foliage application, plastic box (Table 20, symbol K); format: in vivo, Italian ryegrass (Lolium multiflorum); settings: foliage application, 320 g/ha, three weeks after application
# Method in brief: as §3
# windgrass = experiment: Test Example 5: herbicidal effect by foliage application, plastic box (Table 20, symbol L); format: in vivo, windgrass (Apera spica-venti); settings: foliage application, 320 g/ha, three weeks after application
# Method in brief: as §3
# velvetleaf = experiment: Test Example 5: herbicidal effect by foliage application, plastic box (Table 20, symbol M); format: in vivo, velvetleaf (Abutilon theophrasti); settings: foliage application, 320 g/ha, three weeks after application
# Method in brief: as §3
# redroot pigweed = experiment: Test Example 5: herbicidal effect by foliage application, plastic box (Table 20, symbol N); format: in vivo, redroot pigweed (Amaranthus retroflexus); settings: foliage application, 320 g/ha, three weeks after application
# Method in brief: as §3
# lambsquarters = experiment: Test Example 5: herbicidal effect by foliage application, plastic box (Table 20, symbol O); format: in vivo, lambsquarters (Chenopodium album); settings: foliage application, 320 g/ha, three weeks after application
# Method in brief: as §3
# chickweed = experiment: Test Example 5: herbicidal effect by foliage application, plastic box (Table 20, symbol P); format: in vivo, common chickweed (Stellaria media); settings: foliage application, 320 g/ha, three weeks after application
# Method in brief: as §3
# persian speedwell = experiment: Test Example 5: herbicidal effect by foliage application, plastic box (Table 20, symbol R); format: in vivo, Persian speedwell (Veronica persica); settings: foliage application, 320 g/ha, three weeks after application
# Method in brief: as §3
Structure (SMILES),"Herbicidal effect, A: late watergrass (late watergrass)","Herbicidal effect, B: Japanese bulrush (Japanese bulrush)","Herbicidal effect, C: oval-leafed pondweed (oval-leafed pondweed)",herbicidal effect on H: barnyard grass (barnyard grass [1]),herbicidal effect on D: Chinese sprangletop (Chinese sprangletop),herbicidal effect on E: rice flat sedge (rice flat sedge),"F: southern crabgrass, herbicidal effect grade (southern crabgrass)","G: green foxtail, herbicidal effect grade (green foxtail)","H: barnyard grass, herbicidal effect grade (barnyard grass [2])","I: wild oat, herbicidal effect grade (wild oat)","J: blackgrass, herbicidal effect grade (blackgrass)","K: Italian ryegrass, herbicidal effect grade (Italian ryegrass)","L: windgrass, herbicidal effect grade (windgrass)","M: velvetleaf, herbicidal effect grade (velvetleaf)","N: redroot pigweed, herbicidal effect grade (redroot pigweed)","O: lambsquarters, herbicidal effect grade (lambsquarters)","P: chickweed, herbicidal effect grade (chickweed)","R: persian speedwell, herbicidal effect grade (persian speedwell)"
CSCCOc1ccc(-c2sc3ccc(F)cc3c2-c2c(OCCSC)c(C)nn(C)c2=O)cc1 [2-420],2 (Herbicidal rate of 20% or more and less than 40%),3 (Herbicidal rate of 40% or more and less than 70%),0 (Herbicidal rate of 5% or less (almost no effect)),5 (Herbicidal rate of 90% or more (almost completely withered)),3 (Herbicidal rate of 40% or more and less than 70%),4 (Herbicidal rate of 70% or more and less than 90%),4 (Herbicidal rate of 70% or more and less than 90%),4 (Herbicidal rate of 70% or more and less than 90%),5 (Herbicidal rate of 90% or more (almost completely withered)),0 (Herbicidal rate of 5% or less (almost no effect)),4 (Herbicidal rate of 70% or more and less than 90%),1 (Herbicidal rate of 5% or more and less than 20%),4 (Herbicidal rate of 70% or more and less than 90%),4 (Herbicidal rate of 70% or more and less than 90%),5 (Herbicidal rate of 90% or more (almost completely withered)),5 (Herbicidal rate of 90% or more (almost completely withered)),4 (Herbicidal rate of 70% or more and less than 90%),4 (Herbicidal rate of 70% or more and less than 90%)
COc1ccccc1-c1sc2cc(F)ccc2c1-c1c(OC(=O)N2CCOCC2)c(C)nn(C)c1=O [3-025],0 (Herbicidal rate of 5% or less (almost no effect)),0 (Herbicidal rate of 5% or less (almost no effect)),3 (Herbicidal rate of 40% or more and less than 70%),3 (Herbicidal rate of 40% or more and less than 70%),0 (Herbicidal rate of 5% or less (almost no effect)),2 (Herbicidal rate of 20% or more and less than 40%),0 (Herbicidal rate of 5% or less (almost no effect)),0 (Herbicidal rate of 5% or less (almost no effect)),0 (Herbicidal rate of 5% or less (almost no effect)),0 (Herbicidal rate of 5% or less (almost no effect)),0 (Herbicidal rate of 5% or less (almost no effect)),0 (Herbicidal rate of 5% or less (almost no effect)),0 (Herbicidal rate of 5% or less (almost no effect)),0 (Herbicidal rate of 5% or less (almost no effect)),1 (Herbicidal rate of 5% or more and less than 20%),0 (Herbicidal rate of 5% or less (almost no effect)),3 (Herbicidal rate of 40% or more and less than 70%),0 (Herbicidal rate of 5% or less (almost no effect))
COc1ccccc1-c1sc2cc(F)ccc2c1-c1c(OC(=O)SC(C)(C)C)c(C)nn(C)c1=O [3-026],2 (Herbicidal rate of 20% or more and less than 40%),0 (Herbicidal rate of 5% or less (almost no effect)),3 (Herbicidal rate of 40% or more and less than 70%),4 (Herbicidal rate of 70% or more and less than 90%),0 (Herbicidal rate of 5% or less (almost no effect)),2 (Herbicidal rate of 20% or more and less than 40%),0 (Herbicidal rate of 5% or less (almost no effect)),0 (Herbicidal rate of 5% or less (almost no effect)),0 (Herbicidal rate of 5% or less (almost no effect)),0 (Herbicidal rate of 5% or less (almost no effect)),0 (Herbicidal rate of 5% or less (almost no effect)),0 (Herbicidal rate of 5% or less (almost no effect)),0 (Herbicidal rate of 5% or less (almost no effect)),0 (Herbicidal rate of 5% or less (almost no effect)),5 (Herbicidal rate of 90% or more (almost completely withered)),1 (Herbicidal rate of 5% or more and less than 20%),0 (Herbicidal rate of 5% or less (almost no effect)),0 (Herbicidal rate of 5% or less (almost no effect))
COc1ccccc1-c1sc2cc(F)ccc2c1-c1c(OCC(=O)c2ccccc2)c(C)nn(C)c1=O [3-030],2 (Herbicidal rate of 20% or more and less than 40%),0 (Herbicidal rate of 5% or less (almost no effect)),3 (Herbicidal rate of 40% or more and less than 70%),4 (Herbicidal rate of 70% or more and less than 90%),2 (Herbicidal rate of 20% or more and less than 40%),0 (Herbicidal rate of 5% or less (almost no effect)),0 (Herbicidal rate of 5% or less (almost no effect)),1 (Herbicidal rate of 5% or more and less than 20%),0 (Herbicidal rate of 5% or less (almost no effect)),0 (Herbicidal rate of 5% or less (almost no effect)),3 (Herbicidal rate of 40% or more and less than 70%),0 (Herbicidal rate of 5% or less (almost no effect)),0 (Herbicidal rate of 5% or less (almost no effect)),3 (Herbicidal rate of 40% or more and less than 70%),3 (Herbicidal rate of 40% or more and less than 70%),1 (Herbicidal rate of 5% or more and less than 20%),3 (Herbicidal rate of 40% or more and less than 70%),0 (Herbicidal rate of 5% or less (almost no effect))
